Where a name gives a salt, the structure may show the parent alone. Read-outs that look alike come from different tables or passages of the source. Values belong to the compound of their own block, whether it stands above or below them.
Columns and labels:
[1] = Rodent pharmacokinetic study; format: in vivo; details: plasma, Wistar/Male rat, 10 mg/kg; for AUC(0-t) / half-life / Cmax / Tmax: vehicle water (Ex. 8: 50% PEG 400); for Cmax: read-out: Cmax; for Tmax: read-out: Tmax; for bioavailability: Oral vs Intravenous, read-out: Bioavailability
Procedure: Male wistar rats (230-280 grams) obtained from NIN (National Institute of Nutrition, Hyderabad, India) were used as an experimental animal. Three to five animals were housed in each cage. Animals were kept fasted over night and maintained on a 12 hours light/dark cycle. Three rats were dosed NCE (10 mg/Kg) orally and intravenously on day 0 and day 2.
At each time point blood was collected by jugular vein. Plasma was stored frozen at −20° C. until analysis. The concentrations of the NCE compound in plasma were determined using LC-MS/MS method. Schedule time points: Pre dose 0.25, 0.5, 1, 1.5, 2, 3, 4, 6, 8, 10, 12 and 24 hours after dosing (n=3). The NCE compounds were quantified in plasma by validated LC-MS/MS method using solid phase extraction technique. NCE compounds were quantified in the calibration range of 2-2000 ng/mL in plasma. Study samples were analyzed using calibration samples in the batch and quality control samples spread across the batch.
Pharmacokinetic parameters Cmax, Tmax, AUCt, T1/2 and Bioavailability were calculated by non-compartmental model using software WinNonlin version 5.1.

[2] = Object recognition task model; format: in vivo; details: rat, p.o.
Procedure: The cognition-enhancing properties of compounds of this invention were estimated using a model of animal cognition: the object recognition task model.
Male Wister rats (230-280 grams) obtained from N.I.N. (National Institute of Nutrition, Hyderabad, India) was used as experimental animals. Four animals were housed in each cage. Animals were kept on 20% food deprivation before one day and given water ad libitum throughout the experiment and maintained on a 12 hours light/dark cycle. Also the rats were habituated to individual arenas for 1 hour in the absence of any objects.
One group of 12 rats received vehicle (1 mL/Kg) orally and another set of animals received compound of the formula (I) either orally or i.p., before one hour of the familiar (T1) and choice trial (T2).
The experiment was carried out in a 50×50×50 cm open field made up of acrylic. In the familiarization phase, (T1), the rats were placed individually in the open field for 3 minutes, in which two identical objects (plastic bottles, 12.5 cm height×5.5 cm diameter) covered in yellow masking tape alone (a1 and a2) were positioned in two adjacent corners, 10 cm. from the walls. After 24 hours of the (T1) trial for long-term memory test, the same rats were placed in the same arena as they were placed in T1 trial. Choice phase (T2) rats were allowed to explore the open field for 3 minutes in presence of one familiar object (a3) and one novel object (b) (Amber color glass bottle, 12 cm high and 5 cm in diameter). Familiar objects presented similar textures, colors and sizes. During the T1 and T2 trial, explorations of each object (defined as sniffing, licking, chewing or having moving vibrissae whilst directing the nose towards the object at a distance of less than 1 cm) were recorded separately by stopwatch. Sitting on an object was not regarded as exploratory activity, however, it was rarely observed. T1 is the total time spent exploring the familiar objects (a1+a2). T2 is the total time spent exploring the familiar object and novel object (a3+b).
The object recognition test was performed as described by Ennaceur, A., Delacour, J., 1988, A new one-trial test for neurobiological studies of memory in rats—Behavioural data, Behav. Brain Res., 31, 47-59.

[3] = target: T1, recombinant human 5-HT6 receptor (Homo sapiens, UniProt P50406); test: Determination of Kb values for 5-HT6 receptor (CHO pCRE-Luc reporter assay); format: cell-based; details: antagonism of 10 uM serotonin, luciferase reporter, CHO cells
T1 construct: expressed in transfected cells
T1 sequence (P50406 whole entry): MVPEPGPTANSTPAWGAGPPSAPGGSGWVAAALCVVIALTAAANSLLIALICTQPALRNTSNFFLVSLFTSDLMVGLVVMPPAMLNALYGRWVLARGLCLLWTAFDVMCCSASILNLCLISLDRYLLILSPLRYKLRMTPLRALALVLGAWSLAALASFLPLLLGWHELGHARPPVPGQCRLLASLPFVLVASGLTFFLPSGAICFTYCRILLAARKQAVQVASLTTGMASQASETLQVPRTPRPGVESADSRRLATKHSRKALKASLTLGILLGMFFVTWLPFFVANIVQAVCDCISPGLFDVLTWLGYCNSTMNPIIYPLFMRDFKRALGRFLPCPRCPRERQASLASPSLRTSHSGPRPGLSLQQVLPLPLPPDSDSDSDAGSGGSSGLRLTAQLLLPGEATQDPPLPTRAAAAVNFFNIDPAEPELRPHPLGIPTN
Procedure: A stable CHO cell line expressing recombinant human 5-HT6 receptor and pCRE-Luc reporter system was used for cell-based assay. The assay offers a non-radioactive based approach to determine binding of a compound to GPCRs. In this specific assay, the level of intracellular cyclic AMP which is modulated by activation or inhibition of the receptor is measured. The recombinant cells harbor luciferase reporter gene under the control of cAMP response element.
The above cells were grown in 96 well clear bottom white plates in Hams F12 medium containing 10% fetal bovine serum (FBS). Prior to the addition of compounds and/or agonist, cells were serum starved overnight. Increasing concentrations of test compounds were added along with 10 uM serotonin in Hams F12 medium containing 1% dialyzed FBS to the cells. The incubation was continued at 37° C. in CO2 incubator for 4 hours. Medium was removed and cells were washed with phosphate buffered saline. The cells were lysed and luciferase activity was measured in a Luminometer. Luminescence units were plotted against the compound concentrations using Graphpad software. EC50 values of the compounds were defined as the concentration required reducing the luciferase activity by 50%. The Kb values were calculated by feeding the concentration of the agonist used in the assay and its EC50 value in the same software.

SMILES: COc1ccc2[nH]cc(S(=O)(=O)c3ccc(Cl)c(NC4CCN(C)CC4)c3)c2c1.Cl
melting point: 240.3 to 243.2 °C

SMILES: COc1ccc(S(=O)(=O)c2cc(Br)ccc2OC)cc1NC1CCN(C)CC1.Cl [Example 3, N-[5-(5-Bromo-2-methoxybenzenesulfonyl)-2-methoxyphenyl]-N-(1-methylpiperidin-4-yl)amine hydrochloride salt]
AUC(0-t) ([1]; Intravenous): 1610 ± 544 ng·h/mL
half-life ([1]; Intravenous): 1.57 ± 0.21 h
Cmax ([1]; Intravenous): 1080 ± 569 ng/mL
Tmax ([1]; Intravenous): 0.12 ± 0.09 h
bioavailability [1]: 38 ± 1%
AUC(0-t) ([1]; Oral): 931 ± 186 ng·h/mL
half-life ([1]; Oral): 1.35 ± 0.27 h
Cmax ([1]; Oral): 341 ± 60 ng/mL
Tmax ([1]; Oral): 0.56 ± 0.31 h
Exploration time mean ± S.E.M, Familiar object ([2]; 1 mg/kg): 4.53 ± 0.72 s
Exploration time mean ± S.E.M, Novel object ([2]; 1 mg/kg): 10.29 ± 1.54 s
Inference ([2]; 1 mg/kg): Active
Kb [3]: 0.01 nM

SMILES: CN1CCC(Nc2cccc(S(=O)(=O)c3c[nH]c4cc(Cl)ccc34)c2)CC1 [Example 5, N-(1-Methylpiperidin-4-yl)-N-[3-(6-chloro-1H-indole-3-ylsulfonyl)phenyl]amine hydrochloride]
Kb [3]: 3.38 nM

SMILES: CN1CCC(Nc2cccc(S(=O)(=O)c3c[nH]c4ccc(F)cc34)c2)CC1.Cl [Example 6, N-(1-Methylpiperidin-4-yl)-N-[3-(5-fluoro-1H-indole-3-ylsulfonyl)phenyl]amine hydrochloride]
melting point: 229.7 to 233.1 °C
Kb [3]: 3.59 nM

SMILES: CN1CCC(Nc2cc(S(=O)(=O)c3c[nH]c4cc(Cl)ccc34)ccc2Cl)CC1.Cl [Example 8, N-(1-Methylpiperidin-4-yl)-N-[2-chloro-5-(6-chloro-1H-indole-3-ylsulfonyl)phenyl]amine hydrochloride]
melting point: 189.7 to 194.2 °C
AUC(0-t) ([1]; Intravenous): 6950 ± 3450 ng·h/mL
half-life ([1]; Intravenous): 5.64 ± 0.95 h
Cmax ([1]; Intravenous): 1340 ± 426 ng/mL
Tmax ([1]; Intravenous): 0.08 h
bioavailability [1]: 58 ± 12%
AUC(0-t) ([1]; Oral): 3810 ± 1340 ng·h/mL
half-life ([1]; Oral): 9.06 ± 2.13 h
Cmax ([1]; Oral): 327 ± 99 ng/mL
Tmax ([1]; Oral): 3 h
Kb [3]: 5.7 nM

SMILES: COc1ccc(S(=O)(=O)c2c[nH]c3ccccc23)cc1NC1CCN(C)CC1 [Example 11, N-(1-Methylpiperidin-4-yl)-N-[2-methoxy-5-(1H-Indole-3-ylsulfonyl)phenyl]amine]
Exploration time mean ± S.E.M, Familiar object ([2]; 3 mg/kg): 9.19 ± 1.44 s
Exploration time mean ± S.E.M, Novel object ([2]; 3 mg/kg): 14.24 ± 1.29 s
Inference ([2]; 3 mg/kg): Active
Kb [3]: 0.05 nM

SMILES: COc1ccc2[nH]cc(S(=O)(=O)c3ccc(OC)c(NC4CCN(C)CC4)c3)c2c1 [Example 13, N-(1-Methylpiperidin-4-yl)-N-[2-methoxy-5-(5-methoxy-1H-Indole-3-ylsulfonyl)phenyl]amine]
Kb [3]: 0.11 nM

SMILES: COc1ccc2[nH]cc(S(=O)(=O)c3ccc(OC)c(NC4CCNCC4)c3)c2c1 [Example 14, N-(Piperidin-4-yl)-N-[2-methoxy-5-(5-methoxy-1H-Indole-3-ylsulfonyl)phenyl]amine]
Kb [3]: 0.16 nM

SMILES: CN1CCC(Nc2cc(S(=O)(=O)c3c[nH]c4cc(Cl)ccc34)ccc2Cl)CC1 [Example 15, N-(1-Methylpiperidin-4-yl)-N-[2-chloro-5-(6-chloro-1H-Indole-3-ylsulfonyl)phenyl] amine]
melting point: 186.1 to 189.9 °C

SMILES: COc1ccc(Br)cc1S(=O)(=O)c1ccc(C)c(NC2CCNCC2F)c1 (centres unmarked) [Example 18, N-[5-(5-Bromo-2-methoxybenzenesulfonyl)-2-methylphenyl]-N-(3-fluoropiperidin-4-yl) amine hydrochloride]
Kb [3]: 6.1 nM

SMILES: Cc1ccc(S(=O)(=O)c2ccccc2)cc1NC1CCN(C)CC1 [Example 35, N-(5-Benzenesulfonyl-2-methylphenyl)-N-(1-methylpiperidin-4-yl)amine]
Exploration time mean ± S.E.M, Familiar object ([2]; 10 mg/kg): 9.37 ± 1.66 s
Exploration time mean ± S.E.M, Novel object ([2]; 10 mg/kg): 15.81 ± 2.89 s
Inference ([2]; 10 mg/kg): Active

Further lines, with some results ahead:

Kb [3]: 1.1 nM
SMILES: COc1ccc(Br)cc1S(=O)(=O)c1ccc(C)c(NC2CCNCC2)c1 [Example 22, N-[5-(5-Bromo-2-methoxybenzenesulfonyl)-2-methylphenyl]-N-(piperidin-4-yl)amine hydrochloride]

Kb [3]: 2.1 nM
SMILES: COc1ccc(Br)cc1S(=O)(=O)c1ccc(C)c(NC2CCN(C)CC2)c1 [Example 23, N-[5-(5-Bromo-2-methoxybenzenesulfonyl)-2-methylphenyl]-N-(1-methylpiperidin-4-yl)amine hydrochloride]

AUC(0-t) ([1]; Intravenous): 3470 ± 161 ng·h/mL
half-life ([1]; Intravenous): 1.46 ± 0.13 h
Cmax ([1]; Intravenous): 1920 ± 29 ng/mL
Tmax ([1]; Intravenous): 0.08 h
bioavailability [1]: 44 ± 18%
AUC(0-t) ([1]; Oral): 1520 ± 630 ng·h/mL
half-life ([1]; Oral): 1.36 ± 0.07 h
Cmax ([1]; Oral): 429 ± 181 ng/mL
Tmax ([1]; Oral): 0.83 ± 0.29 h
Kb [3]: 0.1 nM
SMILES: COc1ccc(S(=O)(=O)c2cc(Br)ccc2OC)cc1NC1CCNCC1F.Cl (centres unmarked) [Example 28, N-[5-(5-Bromo-2-methoxybenzenesulfonyl)-2-methoxyphenyl]-N-(3-fluoropiperidin-4-yl)amine hydrochloride]
Exploration time mean ± S.E.M, Familiar object ([2]; 1 mg/kg): 6.26 ± 0.30 s
Exploration time mean ± S.E.M, Novel object ([2]; 1 mg/kg): 11.46 ± 1.02 s
Inference ([2]; 1 mg/kg): Active

Kb [3]: 0.1 nM
SMILES: COc1ccc(S(=O)(=O)c2cc(Br)ccc2OC)cc1NC1CCNCC1 [Example 29, N-[5-(5-Bromo-2-methoxybenzenesulfonyl)-2-methoxyphenyl]-N-(piperidin-4-yl)amine hydrochloride]

Kb [3]: 0.01 nM
SMILES: COc1ccc(S(=O)(=O)c2ccc(OC)c(NC3CCN(C)CC3)c2)cc1Br [Example 30, N-[5-(3-Bromo-4-methoxybenzenesulfonyl)-2-methoxyphenyl]-N-(1-methylpiperidin-4-yl)amine tartarate]

Kb [3]: 0.05 nM
SMILES: COc1ccc(S(=O)(=O)c2cc(F)ccc2OC)cc1NC1CCN(C)CC1 [Example 31, N-[5-(5-Fluoro-2-methoxybenzenesulfonyl)-2-methoxyphenyl]-N-(1-methylpiperidin-4-yl)amine tartarate]

Kb [3]: 0.06 nM
SMILES: COc1ccc(S(=O)(=O)c2ccc(Cl)cc2)cc1NC1CCN(C)CC1 [Example 32, N-[5-(4-Chlorobenzenesulfonyl)-2-methoxyphenyl]-N-(1-methylpiperidin-4-yl)amine tartarate]

Kb [3]: 0.1 nM
SMILES: COc1ccc(S(=O)(=O)c2ccc(OC)c(NC3CCN(C)CC3)c2)cc1Cl [Example 34, N-[5-(3-Chloro-4-methoxybenzenesulfonyl)-2-methoxyphenyl]-N-(1-methylpiperidin-4-yl)amine tartarate]
